In this test the test system is galanin receptors. Nature of the test: autoradiography of [35S]GTPγS binding in tissue arrays of isolated cell membranes with ligands of galanin receptors. In kind it is biochemical, Sprague Dawley rats. As to conditions: for binding of [35S]GTPγS in the presence of ligand: some tissues (e.g., pituitary), membranes on slides treated with orthophosphoric acid, vs basal; for antagonism of the action of galnon on [35S]GTPγS binding: galnon + antagonist, tissue arrays (FIG. 7). The source says: Five male Sprague Dawley rats (250-275 g) were anesthetized and sacrificed according to the guide approved by the Ethics Committee of the Faculty of Medicine of the Basque Country University following internationally accepted guidelines (86/609/EEC). Organs and tissues which would be used in the experiment (pancreas, stomach, small intestine, spleen, heart, lung, liver, testicle, deferent duct, kidney, suprarenal glands, spinal cord and brain: frontal cortex, striatum, brain stem, pituitary, olfactory nuclei, hippocampus, hypothalamus, thalamus, colliculus and cerebellum) were subsequently extracted. These samples were stored at −70° C. until performing the experiment.
The tissue samples (1 g) were homogenized using a Teflon-glass homogenizer (10 taps at 1,500 rpm) in 30 volumes of homogenization buffer 1 mM [ethylene glycol-bis(β-aminoethyl)-N,N,N′,N′-tetraacetic acid (EGTA), 3 mM MgCl2, 1 mM dithiothreitol (DTT) and 50 mM Tris-HCl, pH 7.4] supplemented with […] sucrose. The crude homogenate was centrifuged at 3,000×g and at 4° C. for 5 minutes and the resulting supernatant was again centrifuged at 40,000×g for 10 minutes (4° C.). The pellet was washed in 20 volumes of homogenization buffer and re-centrifuged in the same conditions. Aliquots were prepared and stored at −70° C. The protein content was determined according to the Bradford method [Bradford M M., Anal Biochem 1976; 72:248-54] using bovine serum albumin (BSA) as standard.
Aliquots of 1 mg/ml of each tissue were taken and with this suspension, 1 μl microspots were made on glass supports (microscope slides) subjected to the following treatments: • a) Treated with orthophosphoric acid (PA) according to the process of Example 1; • b) Gelatinized (G); • c) Coated with gamma-aminopropyltriethoxysilane (APTS); • d) Treated with nitric acid and gelatinized (NA); • e) Treated with nitric acid and subsequently with lignin (NA+lignin); • f) Treated with nitric acid and subsequently with pectin (NA+pectin); or • g) Treated with nitric acid and subsequently with Kuzu (NA+Kuzu).
The microscope slides with the tissue sections were left drying for 15 minutes at room temperature. Subsequently the tissue sections were preincubated in assay buffer at pH 7.4 [50 mM Tris-HCl, 3 mM MgCl2, 0.2 mM EGTA, 100 mM NaCl, 3 mU/ml adenosine deaminase] for 20 minutes at room temperature to eliminate, as much as possible, the presence of endogenous neurotransmitters; after that, the sections were again preincubated in the assay buffer supplemented with guanosine diphosphate (GDP) (2 mM) and DTT (1 mM).
The microscope slides were then incubated for 2 hours at 30° C. in the previous assay buffer, to which the following substances were added depending on the different conditions of the experiment:
After this time, 2 15-minute washings were performed in 50 mM Tris-HCl buffer, pH 7.4 at 4° C. After the second washing, the sections were immersed in distilled water at 4° C. to eliminate the salts and the microscope slides were dried by means of the application of a cold airflow.
Subsequently, the microscope slides with the corresponding sections were exposed to a radiosensitive film (Kodak Biomax MR) which was developed similarly to photographic film. The labeling was quantified transforming the different gray densities into nCi/g tissue equivalent. To that end, each film was exposed together with previously calibrated commercial standards (Amersham). The quantification was performed with microscopic anatomical resolution in a computerized image analysis system, using NIH-image software.
The substances added in the different assays were the following: • (A) To study the binding of [^35S]GTPγS in the absence (basal) and in the presence of agonists, the following agonists were used: • (i) the cannabinoid agonist WIN 55212-2 [(R)-(+)-[2,3-dihydro-5-methyl-3-[(4-morpholinyl)methyl]pyrrolo[1,2,3-d,e]-1.4-benzoxazin-6-yl]-(1-naphthalenyl)methanone mono-methanesulphonate] […]
Background: GTPγS is a poorly hydrolysed GTP analogue; its binding reports G protein activation.

Non-standard residues stand in square brackets, D forms with d. Residues, ends and D or L forms follow the SMILES beside them. *: point of attachment. Fmoc = O=C(OCC1c2ccccc2-c2ccccc21)*; Cha = N[C@@H](CC1CCCCC1)C(=O)O; AMC = Cc1cc(=O)oc2cc(N*)ccc12

Consider `Cc1cc(=O)oc2cc(NC(=O)[C@H](CCCCN)NC(=O)[C@H](CC3CCCCC3)NC(=O)OCC3c4ccccc4-c4ccccc43)ccc12` [galnon] (Fmoc-[Cha]-Lys-{AMC}), for which the “binding of [35S]GTPγS in the presence of ligand” value (from here on “binding of [35S]GTPγS”) is recorded as “increases”.
The same measure, in the same setting: the result for gal(2-11) reads “increases”.
On to “galanin-(1-13)-Pro-Pro-Ala-Leu-Ala-Leu-Ala-Leu-Ala amide [M40]”, for which the “antagonism of the action of galnon on [35S]GTPγS binding” value is “antagonized” and the “binding of [35S]GTPγS” value is recorded as “increases”.
Regarding “galanin-(1-13)-bradykinin,-(2,9)amide [M35]”, the “antagonism of the action of galnon on [35S]GTPγS binding” value is recorded as “antagonized” and the “binding of [35S]GTPγS” value is on record as “increases”.
“galanin-(1-13)-substance P-5-11 amide [M15]”: the “binding of [35S]GTPγS” value is listed as “increases”.

(Values after patent publication US20100068782A1, “METHOD FOR THE SURFACE TREATMENT OF SOLID SUBSTRATES” (UNIVERSIDAD DEL (PIAS) PAIS VASCO, priority 2006, published 2010).)
